Assay results reported in patent publication US12583861B2, “Derivatives of imidazo[4,5-d]pyridazine, their preparation and their therapeutic application” (SANOFI, priority 2021, dated 2026).
pEC50: −log10 of the molar value. Read-outs that look alike come from different tables or passages of the source.

Key:
Format in all cases: cell-based
[1] = target: T1, human TLR8 (Homo sapiens, UniProt Q9NR97); experiment: HEK-Blue hTLR8 reporter cell assay (SEAP, NF-kB/AP-1) for stimulation of human TLR8; conditions: HEK-Blue hTLR8 cells, 24 h incubation, SEAP readout; read-out: TLR8_EC50
T1 construct: host or cells: HEK293 (HEK-Blue hTLR8)
T1 sequence (Q9NR97 27-1041): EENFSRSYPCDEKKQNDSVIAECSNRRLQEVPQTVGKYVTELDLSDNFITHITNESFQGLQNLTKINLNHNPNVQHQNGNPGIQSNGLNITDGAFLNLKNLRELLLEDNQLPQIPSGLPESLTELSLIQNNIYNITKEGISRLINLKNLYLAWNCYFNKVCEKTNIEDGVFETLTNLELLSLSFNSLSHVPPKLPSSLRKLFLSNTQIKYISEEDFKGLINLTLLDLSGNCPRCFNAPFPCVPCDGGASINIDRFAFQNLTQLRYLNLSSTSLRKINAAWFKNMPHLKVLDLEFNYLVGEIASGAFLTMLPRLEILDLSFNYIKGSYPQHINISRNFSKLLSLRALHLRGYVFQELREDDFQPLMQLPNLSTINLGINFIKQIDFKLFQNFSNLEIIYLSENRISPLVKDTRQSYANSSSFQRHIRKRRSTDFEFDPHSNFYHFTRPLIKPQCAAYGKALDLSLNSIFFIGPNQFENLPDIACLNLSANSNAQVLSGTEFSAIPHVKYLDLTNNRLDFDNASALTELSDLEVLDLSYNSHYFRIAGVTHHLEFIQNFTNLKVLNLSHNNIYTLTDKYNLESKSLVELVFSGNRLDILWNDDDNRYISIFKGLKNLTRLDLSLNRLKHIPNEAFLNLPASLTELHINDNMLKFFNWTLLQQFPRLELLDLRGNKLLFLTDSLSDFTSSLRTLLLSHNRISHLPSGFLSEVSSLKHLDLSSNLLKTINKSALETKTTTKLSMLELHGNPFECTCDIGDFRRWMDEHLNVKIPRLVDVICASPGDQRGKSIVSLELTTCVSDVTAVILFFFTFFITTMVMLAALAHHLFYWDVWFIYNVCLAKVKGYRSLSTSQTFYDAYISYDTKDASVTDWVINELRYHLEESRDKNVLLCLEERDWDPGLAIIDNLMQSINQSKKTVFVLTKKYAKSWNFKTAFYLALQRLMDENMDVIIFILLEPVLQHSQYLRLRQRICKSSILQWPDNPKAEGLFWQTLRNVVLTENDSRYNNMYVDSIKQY
Method in brief: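 Stimulation is quantified as secreted alkaline phosphatase in supernatant using QUANTI-Blue™ substrate. Reporter HEK293 line co-transfected with hTLR8 and SEAP under an IFN-β minimal promoter with five NF-κB/AP-1 sites; 3.10E4 cells/well, 18 to 24 h pre-culture at 37° C. before compounds.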

[2] = test system: IFN-α2a; experiment: IFN-α2a cytokine activation in human PBMC (MSD assay)
Protocol: (§1) The other below tests involving measuring the in vitro activity of some compounds of the disclosure on cytokines IFN-α2a, IL-6, IL29 and TNF-α were carried out using human PBMC (PBMCs).
(§2) The activity described below, with respect to TLR7, TLR8, IFN-α2a, IL-6, IL29 and TNF-α, is given by the half maximal effective concentration (EC50), which corresponds to the concentration required to obtain a 50% of the activation. The lower the EC50, the less the concentration of the compound is required to produce 50% of maximum activation and the higher the potency.
(§3) In Vitro Assay to Determine IFN-α2a, IL-6, IL29 and TNF-α Cytokine Activation:
(§4) Peripheral blood mononuclear cells were isolated by Ficoll density gradient centrifugation from peripheral blood samples obtained from healthy donors (EFS). Isolated PBMCs are washed twice with PBS and resuspended in RPMI-1640 medium supplement with 10% fetal bovine serum (FBS) at 5.10^5 cells/well in a 96-well plate. The cells were then incubated with the compounds to test at various doses (20 μM to 4.8.10-6 μM final) for 24 h at 37° C., 5% CO2. After 24 h treatment, the plates are centrifuged and the supernatant were collected and assayed for cytokines IFN-α2a, IL-6, IL29 and TNF-α using the Meso Scale Discovery (MSD) assay platform according to the manufacturer's instructions. Briefly, 25 μL of cell culture supernatants were incubated for 1 h at Room Temperature (RT) in custom Multi-Spot 96-well plates prior coated with capture antibodies. After washing, SULFO-TAG® labeled detection antibodies were added to each of the wells and incubated for 1 h RT before adding a read buffer.

[3] = test system: IL-6; experiment: IL-6 cytokine activation in human PBMC (MSD assay); conditions: read-out: IL6 EC50
Protocol: as §1, §2, §3, §4

[4] = test system: IL29; experiment: IL29 cytokine activation in human PBMC (MSD assay)
Protocol: as §1, §2, §3, §4

[5] = test system: TNF-α; experiment: TNF-α cytokine activation in human PBMC (MSD assay)
Protocol: as §1, §2, §3, §4

| pEC50 [1] | pEC50 ([2]; Homo sapiens, PBMC, 24 h) | pEC50 ([3]; Homo sapiens, PBMC, 24 h) | pEC50 ([4]; Homo sapiens, PBMC, 24 h) | pEC50 ([5]; Homo sapiens, PBMC, 24 h) | pEC50 ([2]; 24 h) | pEC50 ([3]; 24 h) | pEC50 ([4]; 24 h) | pEC50 ([5]; 24 h) | pEC50 ([2]; 24 h, 2,2,2-trifluoroacetate) | pEC50 ([3]; 24 h, 2,2,2-trifluoroacetate) | pEC50 ([4]; 24 h, 2,2,2-trifluoroacetate) | pEC50 ([5]; 24 h, 2,2,2-trifluoroacetate) | Structure (SMILES) |
| --- | --- | --- | --- | --- | --- | --- | --- | --- | --- | --- | --- | --- | --- |
| < 4.70 | 6.99 | 6.34 | 6.76 | 6.15 |  |  |  |  |  |  |  |  | CCCCc1nc2c(N)nnc(OC(C)C)c2n1Cc1ccc(OC)cc1 [Compound 1, 2-butyl-7-isopropoxy-1-(4-methoxybenzyl)-1H-imidazo[4,5-d]pyridazin-4-amine] |
| < 4.70 | 8.52 | 7.00 | 8.22 | 6.24 |  |  |  |  |  |  |  |  | CCCCc1nc2c(N)nnc(NC(C)C)c2n1Cc1ccc(OC)cc1 [Compound 2, 2-butyl-N7-isopropyl-1-(4-methoxybenzyl)-1H-imidazo[4,5-d]pyridazin-4,7-diamine] |
| < 4.70 | 7.21 | 5.85 | 7.08 | 5.55 |  |  |  |  |  |  |  |  | CCCCc1nc2c(N)nnc(SC(C)C)c2n1Cc1ccc(OC)cc1 [Compound 3, 2-butyl-7-(isopropylthio)-1-(4-methoxybenzyl)-1H-imidazo[4,5-d]pyridazin-4-amine] |
| < 4.70 | 7.09 | 5.71 | 6.10 | < 4.70 |  |  |  |  |  |  |  |  | CCCCc1nc2c(N)nnc(OCCOC)c2n1Cc1ccc(OC)cc1 [Compound 4, 2-butyl-1-(4-methoxybenzyl)-7-(2-methoxyethoxy)-1H-imidazo[4,5-d]pyridazin-4-amine] |
| < 4.70 | 6.95 | 6.48 | 7.21 | 6.19 |  |  |  |  |  |  |  |  | C=CCOc1nnc(N)c2nc(CCCC)n(Cc3ccc(OC)cc3)c12 [Compound 6, 7-(allyloxy)-2-butyl-1-(4-methoxybenzyl)-1H-imidazo[4,5-d]pyridazin-4-amine] |
| < 4.70 | 7.74 | 6.97 | 7.70 | 6.15 |  |  |  |  |  |  |  |  | CCCCc1nc2c(N)nnc(-c3cc[nH]c3)c2n1Cc1ccc(OC)cc1 [Compound 14, 2-butyl-1-(4-methoxybenzyl)-7-(1H-pyrrol-3-yl)-1H-imidazo[4,5-d]pyridazin-4-amine] |
| < 4.70 | 7.77 | 6.73 | 7.54 | < 4.70 |  |  |  |  |  |  |  |  | C=C(C)c1nnc(N)c2nc(CCCC)n(Cc3ccc(OC)cc3)c12 [Compound 17, 2-butyl-1-(4-methoxybenzyl)-7-(prop-1-en-2-yl)-1H-imidazo[4,5-d]pyridazin-4-amine] |
| < 4.70 | 7.15 | 6.26 | 6.96 | 5.55 |  |  |  |  |  |  |  |  | CCCCc1nc2c(N)nnc(C(C)C)c2n1Cc1ccc(OC)cc1 [Compound 18, 2-butyl-7-isopropyl-1-(4-methoxybenzyl)-1H-imidazo[4,5-d]pyridazin-4-amine] |
| < 4.70 | 7.05 | 6.43 | 7.00 | 6.04 |  |  |  |  |  |  |  |  | CCCCc1nc2c(N)nnc(OCC)c2n1Cc1ccc(OC)cc1 [Compound 48, 2-butyl-7-ethoxy-1-(4-methoxybenzyl)-1H-imidazo[4,5-d]pyridazin-4-amine] |
| < 4.70 | 7.12 | 5.76 | 6.41 | 5.26 |  |  |  |  |  |  |  |  | CCCCc1nc2c(N)nnc(NCCOC)c2n1Cc1ccc(OC)cc1 [Compound 49, 2-butyl-1-(4-methoxybenzyl)-N7-(2-methoxyethyl)-1H-imidazo[4,5-d]pyridazine-4,7-diamine] |
| < 4.70 | 7.20 | 6.24 | 7.24 | 5.76 |  |  |  |  |  |  |  |  | CCCCc1nc2c(N)nnc(N(C)C)c2n1Cc1ccc(OC)cc1 [Compound 71, 2-butyl-1-(4-methoxybenzyl)-N7,N7-dimethyl-1H-imidazo[4,5-d]pyridazine-4,7-diamine] |

Continued, compound first:

| Structure (SMILES) | pEC50 [1] | pEC50 ([2]; Homo sapiens, PBMC, 24 h) | pEC50 ([3]; Homo sapiens, PBMC, 24 h) | pEC50 ([4]; Homo sapiens, PBMC, 24 h) | pEC50 ([5]; Homo sapiens, PBMC, 24 h) | pEC50 ([2]; 24 h) | pEC50 ([3]; 24 h) | pEC50 ([4]; 24 h) | pEC50 ([5]; 24 h) | pEC50 ([2]; 24 h, 2,2,2-trifluoroacetate) | pEC50 ([3]; 24 h, 2,2,2-trifluoroacetate) | pEC50 ([4]; 24 h, 2,2,2-trifluoroacetate) | pEC50 ([5]; 24 h, 2,2,2-trifluoroacetate) |
| --- | --- | --- | --- | --- | --- | --- | --- | --- | --- | --- | --- | --- | --- |
| CCCCc1nc2c(N)nnc(OC(C)C)c2n1C[C@H]1CCC[C@@H](N)C1 (racemic) [Compound 23, 1-(((1S,3R)-3-aminocyclohexyl)methyl)-2-butyl-7-isopropoxy-1H-imidazo[4,5-d]pyridazin-4-amine (and enantiomer)] | 4.83 | 8.52 | 6.69 | 8.52 | 5.26 |  |  |  |  |  |  |  |  |
| CCCCc1nc2c(N)nnc(OC3CCCC3)c2n1Cc1ccc(OC)cc1 [Compound 9, 2-butyl-7-(cyclopentyloxy)-1-(4-methoxybenzyl)-1H-imidazo[4,5-d]pyridazin-4-amine] | < 4.70 | 7.80 | 6.83 | 7.82 | 6.42 |  |  |  |  |  |  |  |  |
| CCCCc1nc2c(N)nnc(N3CCCC3)c2n1Cc1ccc(OC)cc1 [Compound 10, 2-butyl-1-(4-methoxybenzyl)-7-(pyrrolidin-1-yl)-1H-imidazo[4,5-d]pyridazin-4-amine] | < 4.70 | 7.85 | 6.75 | 7.80 | 6.34 |  |  |  |  |  |  |  |  |
| CCCCc1nc2c(N)nnc(OC(C)C)c2n1Cc1ccc(CN)cc1 [Compound 21, 1-(4-(aminomethyl)benzyl)-2-butyl-7-isopropoxy-1H-imidazo[4,5-d]pyridazin-4-amine] | 5.86 |  |  |  |  | 9.40 | 8.10 | 9.52 | 6.55 |  |  |  |  |
| CCCCc1nc2c(N)nnc(OC(C)C)c2n1Cc1ccc(CN)cc1 [Compound 22, 1-(4-(aminomethyl)benzyl)-2-butyl-7-isopropoxy-1H-imidazo[4,5-d]pyridazin-4-amine 2,2,2-trifluoroacetate] | 5.58 |  |  |  |  |  |  |  |  | 10.00 | 6.78 | 10.00 | 5.55 |
| CCCCc1nc2c(N)nnc(OC(C)C)c2n1Cc1cccc(CN)c1 [Compound 33, 1-(3-(aminomethyl)benzyl)-2-butyl-7-isopropoxy-1H-imidazo[4,5-d]pyridazin-4-amine 2,2,2-trifluoroacetate] | 6.47 | 8.52 | 7.28 | 8.70 | 5.89 |  |  |  |  |  |  |  |  |
| CCCCc1nc2c(N)nnc(OC(C)C)c2n1Cc1ccc(C=O)cc1 [Compound 34, 4-((4-amino-2-butyl-7-isopropoxy-1H-imidazo[4,5-d]pyridazin-1-yl)methyl)benzaldehyde] | < 4.70 | 7.44 | 7.12 | 7.55 | 6.18 |  |  |  |  |  |  |  |  |
| CCCCc1nc2c(N)nnc(OC(C)C)c2n1Cc1ccc(CO)cc1 [Compound 35, (4-((4-amino-2-butyl-7-isopropoxy-1H-imidazo[4,5-d]pyridazin-1-yl)methyl)phenyl)methanol] | < 4.70 | 7.68 | 7.40 | 7.82 | 6.46 |  |  |  |  |  |  |  |  |
| CCCCc1nc2c(N)nnc(N(C)C)c2n1C [Compound 41, 2-butyl-N7,N7,1-trimethyl-1H-imidazo[4,5-d]pyridazine-4,7-diamine] | 5.14 | 5.91 | 5.89 | 5.52 | 5.28 |  |  |  |  |  |  |  |  |
